# Reference: US20060014729A1, “Compounds and their preparation for the treatment of Alzheimer's disease by inhibiting beta-amyloid peptide production” (priority 2004, published 2006)
# Legend:
# Aβ42 = conditions: cited from earlier work
# secreted Aβ40 and Aβ42 = assay: Aβ ELISA in CHO-APP cells treated with compounds; assay type: cell-based, hamster (CHO) cells expressing human APP; conditions: 50 μg/ml, 6 and 24 hours, normalized to full-length APP and vehicle-treated cells
# Description: CHO cells stably transfected with human APP751 (CHO-APP cells) were treated with compounds as described above. The compounds were used at 50 μg/ml for 6 and 24 hours. Levels of secreted Aβ40 and Aβ42 were determined using a commercial Aβ ELISA kit (Biosource) and normalized to cell-associated full-length APP. The relative levels of Aβ40 (white bar) and Aβ42 (black bar) were normalized to values obtained from vehicle-treated cells and are shown as % to control. […] (D10=20(S), 24(R)-epoxydammarane-3β,25-diol; D2=Dammar-24-ene-3β,20(S)-diol; D3=reduction mixture of dammar resin by NaBH4; D5=Dammar resin mixture; D6=dipterocarpol; D7=t-butylhydroperoxide-oxidized products of D3. D8=3-acetyl Dammar-24-ene-3A, 20(S)-diol; D9=3-acetyl 20(S),24(R)-epoxydammarane-3β,25-diol; D10=20(S),24(R)-epoxydammarane-3×, 25-diol; D11=Dammar-24-ene-3×, 20(S)-diol; D12=tetraacetyl 20-hydroxydammar-24-ene-3-yl-glucopyranoside; D13=20-hydroxydammar-24-ene-3-yl-glucopyranoside; D15=20(S), 24(R)-epoxydammarane-3-oxo, 25-ol.
# γ-secretase complex = conditions: partially purified γ-secretase complex; cited from earlier work
compound,measurement,setting,value
CC(C)=CC/C=C(\C)[C@H]1CC[C@]2(C)[C@@H]1[C@H](O)C[C@@H]1[C@@]3(C)CC[C@H](O[C@@H]4O[C@H](CO)[C@@H](O)[C@H](O)[C@H]4O[C@@H]4O[C@H](CO)[C@@H](O)[C@H](O)[C@H]4O)C(C)(C)[C@@H]3CC[C@]12C [Rg5],production of Aβ42 in mammalian cells,Aβ42; mammalian cells,lower the production of Aβ42 in mammalian cells
"CC(C)=CCC[C@](C)(O)[C@H]1CC[C@]2(C)[C@@H]1CC[C@@H]1[C@@]3(C)CCC(=O)C(C)(C)[C@@H]3CC[C@]12C [Compound D6, dipterocarpol]","Aβ-lowering activity (levels of secreted Aβ40 and Aβ42, % to control)",secreted Aβ40 and Aβ42,exhibited Aβ-lowering activities
"CC(=O)O[C@H]1CC[C@]2(C)[C@H]3CC[C@@H]4[C@@H]([C@]5(C)CC[C@H](C(C)(C)O)O5)CC[C@@]4(C)[C@]3(C)CC[C@H]2C1(C)C [Compound D9, 3-acetyl 20(S),24(R)-epoxydammarane-3β,25-diol]",selective potentiation of Aβ42 production,secreted Aβ40 and Aβ42,selectively potentiated Aβ42 production
"CC(C)=CCCC(C)(O)C1CC[C@]2(C)C1CCC1[C@@]3(C)CC[C@@H](O)C(C)(C)C3CC[C@]12C (stereo partly drawn) [Compound D11, Dammar-24-ene-3α,20(S)-diol]","Aβ-lowering activity (levels of secreted Aβ40 and Aβ42, % to control)",secreted Aβ40 and Aβ42,exhibited Aβ-lowering activities
"CC(C)(O)C1CCC(C)(C2CCC3(C)C2CCC2C4(C)CCC(=O)C(C)(C)C4CCC23C)O1 [Compound D15, 20(S), 24(R)-epoxydammarane-3-oxo, 25-ol]","Aβ-lowering activity (levels of secreted Aβ40 and Aβ42, % to control)",secreted Aβ40 and Aβ42,exhibited Aβ-lowering activities
CC(C)=CCC[C@](C)(O[C@@H]1O[C@H](CO)[C@@H](O)[C@H](O)[C@H]1O)[C@H]1CC[C@]2(C)[C@@H]1[C@H](O)C[C@@H]1[C@@]3(C)CC[C@H](O)C(C)(C)[C@@H]3[C@@H](O[C@@H]3O[C@H](CO)[C@@H](O)[C@H](O)[C@H]3O)C[C@]12C [Rg1],amyloid-reducing activity in vitro,Aβ42; in vitro,no amyloid-reducing activity in vitro
"CC(C)=CCCC(C)(O)C1CC[C@]2(C)C1CCC1[C@@]3(C)CC[C@H](O)C(C)(C)C3CC[C@]12C (stereo partly drawn) [Compound D2, Dammar-24-ene-3β,20(S)-diol]",selective potentiation of Aβ42 production,secreted Aβ40 and Aβ42,selectively potentiated Aβ42 production
CC(C)=CCC[C@](C)(O)[C@H]1CC[C@]2(C)[C@@H]1[C@H](O)C[C@@H]1[C@@]3(C)CC[C@H](O[C@@H]4O[C@H](CO)[C@@H](O)[C@H](O)[C@H]4O[C@@H]4O[C@H](CO)[C@@H](O)[C@H](O)[C@H]4O)C(C)(C)[C@@H]3CC[C@]12C [(20S)Rg3],production of Aβ42 in mammalian cells,Aβ42; mammalian cells,lower the production of Aβ42 in mammalian cells
"CC(C)(O)[C@H]1CC[C@@](C)([C@H]2CC[C@]3(C)[C@@H]2CC[C@@H]2[C@@]4(C)CC[C@@H](O)C(C)(C)[C@@H]4CC[C@]23C)O1 [Compound D10, 20(S),24(R)-epoxydammarane-3 cc, 25-diol]","Aβ-lowering activity (levels of secreted Aβ40 and Aβ42, % to control)",secreted Aβ40 and Aβ42,exhibited Aβ-lowering activities
C=C(CCC=C(C)C)[C@H]1CC[C@]2(C)[C@@H]1[C@H](O)C[C@@H]1[C@@]3(C)CC[C@H](O[C@@H]4O[C@H](CO)[C@@H](O)[C@H](O)[C@H]4O[C@@H]4O[C@H](CO)[C@@H](O)[C@H](O)[C@H]4O)C(C)(C)[C@@H]3CC[C@]12C [Rk1],Aβ42 production in cell-free assay,γ-secretase complex,inhibit the Aβ42 production
same,production of Aβ42 in mammalian cells,Aβ42; mammalian cells,lower the production of Aβ42 in mammalian cells
same,relative effectiveness in reducing Aβ42 levels,Aβ42; mammalian cells,most effective in reducing Aβ42 levels
"CC(C)(O)[C@H]1CC[C@@](C)([C@H]2CC[C@]3(C)[C@@H]2CC[C@@H]2[C@@]4(C)CC[C@H](O)C(C)(C)[C@@H]4CC[C@]23C)O1 [Compound D1, 20(S), 24(R)-epoxydammarane-3β, 25-diol]",selective potentiation of Aβ42 production,secreted Aβ40 and Aβ42,selectively potentiated Aβ42 production
tetraacetyl 20-hydroxydammar-24-ene-3-yl-glucopyranoside [Compound D12],"Aβ-lowering activity (levels of secreted Aβ40 and Aβ42, % to control)",secreted Aβ40 and Aβ42,exhibited Aβ-lowering activities
